The values below come from PubChem BioAssay AID256 (DTP/NCI, 2004).

“And” between values parts separate entries of the source, which are not always exact repeats. Equal values may be shown once. Inconclusive results and toxic doses are left out.

The subject of this test is CD2F1 mice, L1210 leukemia ip, survival T/C. The experiment in a line: NCI In Vivo Anticancer Drug Screen. Data for tumor model L1210 Leukemia (intraperitoneal) in CD2F1 (CDF1) mice. As to conditions: higher = longer survival. The method in brief:
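Compound-dosed mice with transplantable tumor versus matched vehicle controls; endpoint ratio T/C reported.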

Setting [1] is: endpoint: mean survival time, dose: 25.0 mg/kg/injection, schedule: Q01DX009 (ip), vehicle: other.
Where [2] appears, read: endpoint: mean survival time, dose: 50.0 mg/kg/injection, schedule: Q01DX009 (ip), vehicle: other.
Setting [3] is: endpoint: mean survival time, dose: 50.0 mg/kg/injection, schedule: Q01DX009 (ip), vehicle: saline with Tween-80.
Where [4] appears, read: endpoint: mean survival time, dose: 50.0 mg/kg/injection, schedule: Q04DX003 (ip), vehicle: saline.
Where [5] appears, read: endpoint: mean survival time, dose: 100.0 mg/kg/injection, schedule: Q04DX003 (ip), vehicle: saline.
Setting [6] is: endpoint: mean survival time, dose: 100.0 mg/kg/injection, schedule: Q01DX009 (ip), vehicle: saline with Tween-80.
Where [7] appears, read: endpoint: mean survival time, dose: 200.0 mg/kg/injection, schedule: Q01DX009 (ip), vehicle: saline with Tween-80.
[8] abbreviates: endpoint: mean survival time, dose: 100.0 mg/kg/injection, schedule: Q01DX001 (ip), vehicle: saline.
Setting [9] is: endpoint: mean survival time, dose: 200.0 mg/kg/injection, schedule: Q01DX001 (ip), vehicle: saline.
[10] abbreviates: endpoint: mean survival time, dose: 100.0 mg/kg/injection, schedule: Q04DX003 (ip), vehicle: saline with Tween-80.
Where [11] appears, read: endpoint: mean survival time, dose: 200.0 mg/kg/injection, schedule: Q04DX003 (ip), vehicle: saline with Tween-80.
The mark [12] stands for this setting: endpoint: mean survival time, dose: 400.0 mg/kg/injection, schedule: Q04DX003 (ip), vehicle: saline with Tween-80.
Where [13] appears, read: endpoint: mean survival time, dose: 100.0 mg/kg/injection, schedule: Q04DX003 (ip), vehicle: Klucel (hydroxypropylcellulose) (HPC).
Setting [14] is: endpoint: mean survival time, dose: 200.0 mg/kg/injection, schedule: Q04DX003 (ip), vehicle: Klucel (hydroxypropylcellulose) (HPC).
Where [15] appears, read: endpoint: mean survival time, dose: 50.0 mg/kg/injection, schedule: Q01DX009 (ip), vehicle: Klucel (hydroxypropylcellulose) (HPC).
The mark [16] stands for this setting: endpoint: mean survival time, dose: 100.0 mg/kg/injection, schedule: Q01DX009 (ip), vehicle: Klucel (hydroxypropylcellulose) (HPC).
The mark [17] stands for this setting: endpoint: mean survival time, dose: 200.0 mg/kg/injection, schedule: Q01DX009 (ip), vehicle: Klucel (hydroxypropylcellulose) (HPC).
The mark [18] stands for this setting: endpoint: mean survival time, dose: 400.0 mg/kg/injection, schedule: Q01DX009 (ip), vehicle: saline with Tween-80.

In the case of `OCC1OC(n2cc(I)c3c2ncn2ccnc32)C(O)C1O` (configuration not stated), the T/C (endpoint: mean survival time, dose: 1.56 mg/kg/injection, schedule: Q01DX005 (ip), vehicle: water) was 92 % of control; the T/C (endpoint: mean survival time, dose: 3.13 mg/kg/injection, schedule: Q01DX005 (ip), vehicle: water) is 92 % of control; the T/C (endpoint: mean survival time, dose: 6.25 mg/kg/injection, schedule: Q01DX005 (ip), vehicle: water) is 97 % of control; the T/C (endpoint: mean survival time, dose: 12.5 mg/kg/injection, schedule: Q01DX005 (ip), vehicle: water) is 104 % of control; the T/C (endpoint: mean survival time, dose: 25.0 mg/kg/injection, schedule: Q01DX005 (ip), vehicle: water) is 100 % of control.

For `CC(=O)OCC1OC(n2ncc3c(Sc4c([N+](=O)[O-])ncn4C)ncnc32)C(OC(C)=O)C1OC(C)=O` (configuration not stated), the T/C under setting [1] is 100 % of control; the T/C under setting [2] is 102 % of control; the T/C (endpoint: mean survival time, dose: 100.0 mg/kg/injection, schedule: Q01DX009 (ip), vehicle: other) is 100 % of control.

Take `CC(C)CCNCC(C)(C)OC(=O)c1ccc([N+](=O)[O-])cc1`: the T/C is 97 % of control (endpoint: mean survival time, dose: 75.0 mg/kg/injection, schedule: Q01DX001 (ip), vehicle: saline); 101 % of control (endpoint: mean survival time, dose: 150.0 mg/kg/injection, schedule: Q01DX001 (ip), vehicle: saline); 102 % of control (endpoint: mean survival time, dose: 300.0 mg/kg/injection, schedule: Q01DX001 (ip), vehicle: saline).

In the case of `NC(N)=NC1CCCC1`, the T/C was 102 % of control (endpoint: mean survival time, dose: 25.0 mg/kg/injection, schedule: Q01DX009 (ip), vehicle: saline with Tween-80); 100 % of control (endpoint: mean survival time, dose: 25.0 mg/kg/injection, schedule: Q04DX003 (ip), vehicle: saline); 100 % of control under setting [3]; 91 % of control under setting [4]; 100 % of control under setting [5].

As for `CCOC/C=C/C(C)(C)C`, the T/C under setting [3] is 102 % of control, the T/C under setting [6] is 102 % of control and the T/C under setting [7] is 97 % of control.

As for `[Cl][Pt+2][Cl].[NH-]c1ccc(F)cc1F.[NH-]c1ccc(F)cc1F`, the T/C reads like this: (endpoint: mean survival time, dose: 12.5 mg/kg/injection, schedule: Q04DX003 (ip), vehicle: distilled water + Tween-80) 114 % of control and 104 % of control and 110 % of control; (endpoint: mean survival time, dose: 25.0 mg/kg/injection, schedule: Q04DX003 (ip), vehicle: distilled water + Tween-80) 115 % of control and 117 % of control and 96 % of control; (endpoint: mean survival time, dose: 50.0 mg/kg/injection, schedule: Q04DX003 (ip), vehicle: distilled water + Tween-80) 116 % of control and 105 % of control; (endpoint: mean survival time, dose: 100.0 mg/kg/injection, schedule: Q04DX003 (ip), vehicle: distilled water + Tween-80) 122 % of control and 88 % of control and 94 % of control.

Turning to `O=C(C[P+](c1ccccc1)(c1ccccc1)c1ccccc1)C[P+](c1ccccc1)(c1ccccc1)c1ccccc1`, the T/C is 97 % of control under setting [8]; 95 % of control under setting [9]; 92 % of control (endpoint: mean survival time, dose: 400.0 mg/kg/injection, schedule: Q01DX001 (ip), vehicle: saline).

For `CCOC(=O)c1c(C)[nH]c(C)cc1=O`, the T/C reads like this: (endpoint: mean survival time, dose: 100.0 mg/kg/injection, schedule: Q04DX002 (ip), vehicle: saline) 103 % of control; (endpoint: mean survival time, dose: 200.0 mg/kg/injection, schedule: Q04DX002 (ip), vehicle: saline) 108 % of control.

Regarding `CC(=O)N1CCN(C(C)=O)c2ccccc21`, the T/C was 101 % of control under setting [10], 101 % of control under setting [11] and 93 % of control under setting [12].

As to `CC(=O)C1CCC2C3CC=C4CC(n5cc(C)c(=O)[nH]c5=O)CCC4(C)C3CCC12C` (configuration not stated), the T/C (endpoint: mean survival time, dose: 12.5 mg/kg/injection, schedule: Q04DX003 (ip), vehicle: Klucel (hydroxypropylcellulose) (HPC)) is 90 % of control; the T/C (endpoint: mean survival time, dose: 25.0 mg/kg/injection, schedule: Q01DX001 (ip), vehicle: Klucel (hydroxypropylcellulose) (HPC)) is 95 % of control; the T/C (endpoint: mean survival time, dose: 25.0 mg/kg/injection, schedule: Q04DX003 (ip), vehicle: Klucel (hydroxypropylcellulose) (HPC)) is 96 % of control; the T/C (endpoint: mean survival time, dose: 50.0 mg/kg/injection, schedule: Q01DX001 (ip), vehicle: Klucel (hydroxypropylcellulose) (HPC)) was 100 % of control; the T/C (endpoint: mean survival time, dose: 50.0 mg/kg/injection, schedule: Q04DX003 (ip), vehicle: Klucel (hydroxypropylcellulose) (HPC)) was 94 % of control; the T/C (endpoint: mean survival time, dose: 100.0 mg/kg/injection, schedule: Q01DX001 (ip), vehicle: Klucel (hydroxypropylcellulose) (HPC)) is 88 % of control. For the same molecule, the T/C under setting [13] is 100 % of control; the T/C (endpoint: mean survival time, dose: 200.0 mg/kg/injection, schedule: Q01DX001 (ip), vehicle: Klucel (hydroxypropylcellulose) (HPC)) is 91 % of control; the T/C under setting [14] was 102 % of control; the T/C (endpoint: mean survival time, dose: 400.0 mg/kg/injection, schedule: Q01DX001 (ip), vehicle: Klucel (hydroxypropylcellulose) (HPC)) was 95 % of control.

Turning to `Cc1c(N=O)c(C)[n+]([O-])n1O`, the T/C under setting [15] was 89 % of control, the T/C under setting [16] is 97 % of control and the T/C under setting [17] was 97 % of control.

Consider `OCCN=Cc1cccs1`, for which the T/C is 101 % of control under setting [6], 95 % of control under setting [7] and 110 % of control under setting [18].

With `COC(=O)C(C(=O)OC)=C(C(=O)OC)C(=O)OC`, the T/C is 96 % of control under setting [6], 96 % of control under setting [7] and 94 % of control under setting [18].

Turning to `NC(=O)C1=CC2C3C=CC2(O)C(=O)OC3O1` (configuration not stated), the T/C runs as follows: (endpoint: median survival time, dose: 1.9 mg/kg/injection, schedule: Q01DX009 (ip), vehicle: Klucel (hydroxypropylcellulose) (HPC)) 108 % of control; (endpoint: median survival time, dose: 3.75 mg/kg/injection, schedule: Q01DX009 (ip), vehicle: Klucel (hydroxypropylcellulose) (HPC)) 120 % of control; (endpoint: median survival time, dose: 7.5 mg/kg/injection, schedule: Q01DX009 (ip), vehicle: Klucel (hydroxypropylcellulose) (HPC)) 118 % of control; (endpoint: median survival time, dose: 15.0 mg/kg/injection, schedule: Q01DX009 (ip), vehicle: Klucel (hydroxypropylcellulose) (HPC)) 117 % of control; (endpoint: median survival time, dose: 30.0 mg/kg/injection, schedule: Q01DX009 (ip), vehicle: Klucel (hydroxypropylcellulose) (HPC)) 121 % of control and 110 % of control.

On to `Cc1ccc(Nc2n[nH]c(=S)s2)cc1C`, for which the T/C reads like this: under setting [10], 93 % of control; under setting [11], 94 % of control; under setting [12], 109 % of control.

Consider `COc1ccc(C(=O)CC(=O)NC(=O)c2ccc(OC)cc2)cc1`, for which the T/C (endpoint: mean survival time, dose: 100.0 mg/kg/injection, schedule: Q01DX001 (ip), vehicle: other) was 96 % of control; the T/C (endpoint: mean survival time, dose: 200.0 mg/kg/injection, schedule: Q01DX001 (ip), vehicle: other) is 97 % of control; the T/C (endpoint: mean survival time, dose: 400.0 mg/kg/injection, schedule: Q01DX001 (ip), vehicle: other) was 96 % of control.

For `CCO/C=C1\SC(=S)N(Cc2ccccc2)C1=O`, the T/C is, setting by setting: under setting [1], 105 % of control; under setting [2], 115 % of control; under setting [6], 89 % of control.

For the molecule `COc1ccc(NC(=O)Nc2c(C)n(C)n(-c3ccccc3)c2=O)c(Cl)c1`, the T/C is, setting by setting: under setting [15], 95 % of control; under setting [16], 95 % of control; under setting [13], 104 % of control; under setting [17], 95 % of control; under setting [14], 104 % of control; (endpoint: mean survival time, dose: 400.0 mg/kg/injection, schedule: Q04DX003 (ip), vehicle: Klucel (hydroxypropylcellulose) (HPC)) 104 % of control.

Turning to `O[C@@H](c1ccccc1)[C@@H](c1ccccc1)N1CCCCC1`, the T/C runs as follows: under setting [4], 103 % of control; under setting [8], 96 % of control; under setting [5], 108 % of control; under setting [9], 104 % of control; (endpoint: mean survival time, dose: 200.0 mg/kg/injection, schedule: Q04DX003 (ip), vehicle: saline) 98 % of control.

As to `NC(=O)c1[nH]cnc1/N=N/N(CCF)CCF`, the T/C was 121 % of control (endpoint: mean survival time, dose: 8.8 mg/kg/injection, schedule: Q01DX001 (ip), vehicle: other) and 158 % of control (endpoint: mean survival time, dose: 30.0 mg/kg/injection, schedule: Q01DX001 (ip), vehicle: other).
